# Test results reported in patent publication US9872495B2, “Peptoid oligomers, pharmaceutical compositions and methods of using the same” (priority 2009, dated 2018).
# Where two headings read alike, the source gives them in different places. Numbered stars: 1 amine (or outer) side, 2 acyl side, 3 side chain; on linkers, the order of the positions; unused ones are H or OH. Square brackets hold non-standard residues; d marks the D form. Peptide text beside a SMILES is read from it. X1 = O=C(CN(CC(c1ccccc1)c1ccccc1)[*:1])[*:2]; Gly(N-(CH2)6NH2) = NCCCCCCNCC(=O)O; Gly(N(CH2)3NH2) = NCCCNCC(=O)O; NhArg = N=C(N)NCCCCNCC(=O)O; N(iPr)Gly = CC(C)NCC(=O)O; Nphe = O=C(O)CNCc1ccccc1; Orn = NCCC[C@H](N)C(=O)O; Nleu = CC(C)CNCC(=O)O
# Key:
# Assay type in all cases: cell-based
# [1] = test system: fresh human erythrocytes; experiment: Hemolytic activity
# Procedure: Typically, toxicity is evaluated by hemolytic concentration50 (HC50), which measures the concentration of antimicrobial agents at which 50% of the erythrocytes in the culture are lysed. Significant hemolysis, as evaluated by HC50, was detectable only for peptide gramicidin S (40 μg/mL). […] In order to test hemolytic activity of peptoid oligomers further, more stringent parameters were used. Instead of HC50, hemolytic concentration10 (HC10) was used to evaluate hemolytic activity of peptoids used in this study. HC10 represents the concentration of antimicrobial agents where 10% of erythrocytes are lysed. HC10 values were detectable for only four peptoid oligomers. […] Antimicrobial activity was tested against the gram-negative strain Escherichia coli ATCC 25922, and […] strains Staphylococcus aureus ATCC 25923, and Bacillus subtilis ATCC 6633, according to the guidelines given in the document […]-A7 of the CLSI (Clinical and Laboratory Standards Institute; Clinical and Laboratory Standards Institute. Methods for Dilution Antimicrobial Susceptibility Tests for Bacteria That Grow Aerobically-Seventh Edition: Approved Standard CLSI document […]-A7. CLSI, Wayne, USA, 2006). This reference is incorporated herein in its entirety. Hemolytic activity was tested against fresh human erythrocytes.
# [2] = test system: Escherichia coli ATCC 25922
# Procedure: (§1) Antimicrobial activity was tested against the gram-negative strain Escherichia coli ATCC 25922, and […] strains Staphylococcus aureus ATCC 25923, and Bacillus subtilis ATCC 6633, according to the guidelines given in the document […]-A7 of the CLSI (Clinical and Laboratory Standards Institute; Clinical and Laboratory Standards Institute. Methods for Dilution Antimicrobial Susceptibility Tests for Bacteria That Grow Aerobically-Seventh Edition: Approved Standard CLSI document […]-A7. CLSI, Wayne, USA, 2006). This reference is incorporated herein in its entirety. Hemolytic activity was tested against fresh human erythrocytes.
# [3] = test system: Staphylococcus aureus ATCC 25923
# Procedure: as §1
# [4] = test system: Bacillus subtilis ATCC 6633
# Procedure: as §1
MIC E. coli ([2]; ATCC 25922) [µg/mL],MIC S. aureus ([3]; ATCC 25923) [µg/mL],MIC B. sub ([4]; ATCC 6633) [µg/mL],Compound,HC10 (concentration where 10% hemolysis is observed) ([1]; red cells of human) [µg/mL],HC50 (concentration where 50% hemolysis is observed) ([1]; red cells of human) [µg/mL],HC10 (concentration where 10% hemolysis is observed) ([1]; fresh human erythrocytes) [µg/mL],HC50 (concentration where 50% hemolysis is observed) ([1]; fresh human erythrocytes) [µg/mL],MIC E. coli ([2]; E. coli ATCC 25922) [µg/mL],MIC S. aureus ([3]; S. aureus ATCC 25923) [µg/mL],MIC B. sub ([4]; B. subtilis ATCC 6633) [µg/mL],non-hemolytic up to (concentration) [1] [µg/mL],HC50 (concentration where 50% hemolysis is observed) [1] [µg/mL]
500,500,15.6,"NCCCN1CC(=O)N(Cc2ccccc2)CC(=O)N(Cc2ccccc2)CC(=O)N(Cc2ccccc2)CC(=O)N(CCCN)CC(=O)N(Cc2ccccc2)CC1=O [Compound 26, C(NpmNap)2Npm2] (cyclo([Nphe][Nphe][Nphe][Gly(N(CH2)3NH2)][Nphe][Gly(N(CH2)3NH2)]))",>250,>250,–,–,–,–,–,–,–
>500,>500,>500,"NCCCN1CC(=O)N(CCCN)CC(=O)N(Cc2ccccc2)CC(=O)N(CCCN)CC(=O)N(Cc2ccccc2)CC(=O)N(CCCN)CC1=O [Compound 22, C(NapNpm)2Nap2] (cyclo([Nphe][Gly(N(CH2)3NH2)][Nphe][Gly(N(CH2)3NH2)][Gly(N(CH2)3NH2)][Gly(N(CH2)3NH2)]))",>250,>250,–,–,–,–,–,–,–
250,125,62.5,"CC(=O)N(CCCCNC(=N)N)CC(=O)N(CC(=O)N(CCCCNC(=N)N)CC(=O)N(CC(=O)N(CCCCNC(=N)N)CC(=O)N(CC(N)=O)Cc1ccccc1)Cc1ccccc1)Cc1ccccc1 [Compound 2, Ac(NgbNpm)3] (Ac-[NhArg][Nphe][NhArg][Nphe][NhArg][Nphe]-NH2)",>250,>250,–,–,–,–,–,–,–
–,–,–,"CC(=O)N(CC(=O)N(CCCN)CC(=O)N(CC(=O)N(CC(=O)N1CCC[C@H]1C(=O)N(CC(=O)N(CCCN)CC(=O)N(CC(=O)N(CC(=O)N1CCC[C@H]1C(N)=O)Cc1ccccc1)CC(C)C)C(C)C)Cc1ccccc1)CC(C)C)C(C)C [Compound 11, Ac(NipNapNibNpmPro)2] (Ac-[N(iPr)Gly][Gly(N(CH2)3NH2)][Nleu][Nphe]P[N(iPr)Gly][Gly(N(CH2)3NH2)][Nleu][Nphe]P-NH2)",–,–,>250,>250,>500,>500,>500,–,–
31.3,62.5,62.5,"CC(C)CN1CC(=O)N(CCCCNC(=N)N)CC(=O)N(C(C)C)CC(=O)N2CCC[C@H]2C(=O)N(CC(c2ccccc2)c2ccccc2)CC(=O)N(CC(C)C)CC(=O)N(CCCCNC(=N)N)CC(=O)N(C(C)C)CC(=O)N2CCC[C@H]2C(=O)N(CC(c2ccccc2)c2ccccc2)CC1=O [Compound 28, C(NdpNibNgbNipPro)2] (cyclo([Nleu][NhArg][N(iPr)Gly]P[X1][Nleu][NhArg][N(iPr)Gly]P[X1]))",>250,>250,–,–,–,–,–,–,–
31.3,62.5,15.6,"CC(=O)N(CCCN)CC(=O)N(CC(=O)N(CCCN)CC(=O)N(CC(=O)N(CCCN)CC(=O)N(CC(=O)N(CCCN)CC(=O)N(CC(=O)N(CCCN)CC(=O)N(CC(N)=O)Cc1ccccc1)Cc1ccccc1)Cc1ccccc1)Cc1ccccc1)Cc1ccccc1 [Compound 9, Ac(NapNpm)5] (Ac-[Gly(N(CH2)3NH2)][Nphe][Gly(N(CH2)3NH2)][Nphe][Gly(N(CH2)3NH2)][Nphe][Gly(N(CH2)3NH2)][Nphe][Gly(N(CH2)3NH2)][Nphe]-NH2)",>250,>250,–,–,–,–,–,–,–
31.3,62.5,62.5,"CC(=O)N(CCCCNC(=N)N)CC(=O)N(CC(=O)N(CCCCNC(=N)N)CC(=O)N(CC(=O)N(CCCCNC(=N)N)CC(=O)N(CC(=O)N(CCCCNC(=N)N)CC(=O)N(CC(=O)N(CCCCNC(=N)N)CC(=O)N(CC(N)=O)CC(c1ccccc1)c1ccccc1)CC(c1ccccc1)c1ccccc1)CC(c1ccccc1)c1ccccc1)CC(c1ccccc1)c1ccccc1)CC(c1ccccc1)c1ccccc1 [Compound 15, Ac(NgbNdp)5]",>250,>250,–,–,–,–,–,–,–
31.3,31.3,2,"NCCCN1CC(=O)N(Cc2ccccc2)CC(=O)N(CCCN)CC(=O)N(Cc2ccccc2)CC(=O)N(CCCN)CC(=O)N(Cc2ccccc2)CC(=O)N(CCCN)CC(=O)N(Cc2ccccc2)CC1=O [Compound 24, C(NapNpm)4] (cyclo([Nphe][Gly(N(CH2)3NH2)][Nphe][Gly(N(CH2)3NH2)][Nphe][Gly(N(CH2)3NH2)][Nphe][Gly(N(CH2)3NH2)]))",>250,>250,–,–,–,–,–,≥ 250,–
>500,>500,>500,"CC(=O)N(CCCCCCN)CC(=O)N(CC(=O)N(CCCCCCN)CC(=O)N(CC(=O)N(CCCCCCN)CC(=O)N(CC(N)=O)Cc1ccccc1)Cc1ccccc1)Cc1ccccc1 [Compound 3, Ac(NahNpm)3] (Ac-[Gly(N-(CH2)6NH2)][Nphe][Gly(N-(CH2)6NH2)][Nphe][Gly(N-(CH2)6NH2)][Nphe]-NH2)",>250,>250,–,–,–,–,–,–,–
7.8,7.8,0.5,"NCCCN1CC(=O)N(Cc2ccccc2)CC(=O)N(CCCN)CC(=O)N(Cc2ccccc2)CC(=O)N(CCCN)CC(=O)N(Cc2ccccc2)CC(=O)N(CCCN)CC(=O)N(Cc2ccccc2)CC(=O)N(CCCN)CC(=O)N(Cc2ccccc2)CC1=O [Compound 25, C(NapNpm)5] (cyclo([Nphe][Gly(N(CH2)3NH2)][Nphe][Gly(N(CH2)3NH2)][Nphe][Gly(N(CH2)3NH2)][Nphe][Gly(N(CH2)3NH2)][Nphe][Gly(N(CH2)3NH2)]))",>250,>250,–,–,–,–,–,≥ 250,–
–,–,–,"CC(C)CN1CC(=O)N(Cc2ccccc2)CC(=O)N2CCC[C@H]2C(=O)N(C(C)C)CC(=O)N(CCCN)CC(=O)N(CC(C)C)CC(=O)N(Cc2ccccc2)CC(=O)N2CCC[C@H]2C(=O)N(C(C)C)CC(=O)N(CCCN)CC1=O [Compound 27, C(NipNapNibNpmPro)2] (cyclo([Nleu][Nphe]P[N(iPr)Gly][Gly(N(CH2)3NH2)][Nleu][Nphe]P[N(iPr)Gly][Gly(N(CH2)3NH2)]))",–,–,>250,>250,>500,>500,>500,–,–
>500,>500,>500,"N=C(N)NCCCCN1CC(=O)N(CC(c2ccccc2)c2ccccc2)CC(=O)N(CC(c2ccccc2)c2ccccc2)CC(=O)N(CC(c2ccccc2)c2ccccc2)CC(=O)N(CCCCNC(=N)N)CC(=O)N(CC(c2ccccc2)c2ccccc2)CC1=O [Compound 32, C(NdpNgb)2Ndp2]",>250,>250,–,–,–,–,–,–,–
>500,>500,31.3,"CC(=O)N(CC(=O)N(CCCN)CC(=O)N(CC(=O)N(CCCN)CC(=O)N(CC(=O)N(CC(N)=O)Cc1ccccc1)Cc1ccccc1)Cc1ccccc1)Cc1ccccc1 [Compound 10, Ac(NpmNap)2Npm2] (Ac-[Nphe][Gly(N(CH2)3NH2)][Nphe][Gly(N(CH2)3NH2)][Nphe][Nphe]-NH2)",>250,>250,–,–,–,–,–,–,–

Compound,MIC E. coli ([2]; ATCC 25922) [µg/mL],MIC S. aureus ([3]; ATCC 25923) [µg/mL],MIC B. sub ([4]; ATCC 6633) [µg/mL],HC10 (concentration where 10% hemolysis is observed) ([1]; red cells of human) [µg/mL],HC50 (concentration where 50% hemolysis is observed) ([1]; red cells of human) [µg/mL],HC10 (concentration where 10% hemolysis is observed) ([1]; fresh human erythrocytes) [µg/mL],HC50 (concentration where 50% hemolysis is observed) ([1]; fresh human erythrocytes) [µg/mL],MIC E. coli ([2]; E. coli ATCC 25922) [µg/mL],MIC S. aureus ([3]; S. aureus ATCC 25923) [µg/mL],MIC B. sub ([4]; B. subtilis ATCC 6633) [µg/mL],non-hemolytic up to (concentration) [1] [µg/mL],HC50 (concentration where 50% hemolysis is observed) [1] [µg/mL]
"CC(C)C[C@@H]1NC(=O)[C@H](CCCN)NC(=O)[C@H](C(C)C)NC(=O)[C@@H]2CCCN2C(=O)[C@@H](Cc2ccccc2)NC(=O)[C@H](CC(C)C)NC(=O)[C@H](CCCN)NC(=O)[C@H](C(C)C)NC(=O)[C@@H]2CCCN2C(=O)[C@@H](Cc2ccccc2)NC1=O [Compound 17, Gramicidin S, reference compound] (cyclo(V[Orn]L[dF]PV[Orn]L[dF]P))",15.6,15.6,2,>15.6,–,–,–,–,–,–,–,40
